# ChEMBL document CHEMBL3046414, “Synthesis, anticancer, anti-HIV-1, and antimicrobial activity of some tricyclic triazino and triazolo[4,3-e]purine derivatives” (Med Chem Res, 2012)
# Columns and labels:
# [1] = Cytotoxicity against Homo sapiens (human) Colon cancer cell after 48 hr by SRB assay; type: functional; conditions: Cancer cell lines
# [2] = Cytotoxicity against Homo sapiens (human) Renal cancer cell after 48 hr by SRB assay; type: functional; conditions: Cancer cell lines
# [3] = Cytotoxicity against Homo sapiens (human) Prostate cancer cell after 48 hr by SRB assay; type: functional; conditions: Cancer cell lines
# [4] = Cytotoxicity against Homo sapiens (human) CNS cancer cell after 48 hr by SRB assay; type: functional; conditions: Cancer cell lines
# Escherichia coli [5] = assay: Antimicrobial activity against Escherichia coli 5933 after 24 hr by agar cup diffusion technique; type: functional
# CCRF-CEM [6] = assay: Cytotoxicity against Homo sapiens (human) CCRF-CEM cells after 48 hr by SRB assay; type: functional
# Aspergillus niger [7] = assay: Antimicrobial activity against Aspergillus niger ATCC 16404 after 48 hr by agar cup diffusion technique; type: functional
# CAKI-1 = assay: Cytotoxicity against Homo sapiens (human) CAKI-1 cells after 48 hr by SRB assay; type: functional; conditions: CAKI-1, 48 h
# [8] = Cytotoxicity against Homo sapiens (human) Leukemia cell after 48 hr by SRB assay; type: functional
# Saccharomyces cerevisiae [9] = assay: Antimicrobial activity against Saccharomyces cerevisiae ATCC 9763 after 48 hr by agar cup diffusion technique; type: functional
# Proteus vulgaris [10] = assay: Antimicrobial activity against Proteus vulgaris ATCC 49132 after 24 hr by agar cup diffusion technique; type: functional
# Candida albicans [11] = assay: Antimicrobial activity against Candida albicans NCTC 2708 after 48 hr by agar cup diffusion technique; type: functional
# Bacillus spizizenii [12] = assay: Antimicrobial activity against Bacillus subtilis subsp. spizizenii ATCC 6633 after 24 hr by agar cup diffusion technique; type: functional
# [13] = Cytotoxicity against Homo sapiens (human) Ovarian cancer cell after 48 hr by SRB assay; type: functional; conditions: Cancer cell lines
# [14] = Cytotoxicity against Homo sapiens (human) Breast cancer cell after 48 hr by SRB assay; type: functional; conditions: Cancer cell lines
# MCF7 = assay: Anticancer activity against Homo sapiens (human) MCF7 cells assessed as cell growth at 100 uM after 48 hr by Alamar blue assay; type: functional; conditions: MCF7, 48 h, read-out: Activity
# HOP-92 = assay: Cytotoxicity against Homo sapiens (human) HOP92 cells after 48 hr by SRB assay; type: functional; conditions: HOP-92, 48 h
# SF-268 = assay: Anticancer activity against Homo sapiens (human) SF268 cells assessed as cell growth at 100 uM after 48 hr by Alamar blue assay; type: functional; conditions: SF-268, 48 h, read-out: Activity
# Salmonella typhi [15] = assay: Antimicrobial activity against Salmonella enterica subsp. enterica serovar Typhi ATCC 13311 after 24 hr by agar cup diffusion technique; type: functional
# NCI-H460 = assay: Anticancer activity against Homo sapiens (human) NCI-H460 cells assessed as cell growth at 100 uM after 48 hr by Alamar blue assay; type: functional; conditions: NCI-H460, 48 h, read-out: Activity
# T47D = assay: Cytotoxicity against Homo sapiens (human) T47D cells after 48 hr by SRB assay; type: functional
# SK-MEL-5 = assay: Cytotoxicity against Homo sapiens (human) SK-MEL-5 cells after 48 hr by SRB assay; type: functional; conditions: SK-MEL-5, 48 h
# Malme-3M = assay: Cytotoxicity against Homo sapiens (human) MALME-3M cells after 48 hr by SRB assay; type: functional
# ACHN = assay: Cytotoxicity against Homo sapiens (human) ACHN cells after 48 hr by SRB assay; type: functional
# UO-31 = assay: Cytotoxicity against Homo sapiens (human) UO31 cells after 48 hr by SRB assay; type: functional; conditions: UO-31, 48 h
# Pseudomonas aeruginosa [16] = assay: Antimicrobial activity against Pseudomonas aeruginosa ATCC 9027 after 24 hr by agar cup diffusion technique; type: functional
# A498 = assay: Cytotoxicity against Homo sapiens (human) A498 cells after 48 hr by SRB assay; type: functional; conditions: A498, 48 h
# NCI-H226 = assay: Cytotoxicity against Homo sapiens (human) NCI-H226 cells after 48 hr by SRB assay; type: functional; conditions: NCI-H226, 48 h
# [17] = Cytotoxicity against Homo sapiens (human) NSCLC cell after 48 hr by SRB assay; type: functional
# [18] = Cytotoxicity against Homo sapiens (human) Melanoma cell after 48 hr by SRB assay; type: functional
# Proteus vulgaris [19] = assay: Antimicrobial activity against Proteus vulgaris ATCC 49132 after 24 hr by two-fold serial dilution method; type: functional; conditions: ATCC 49132, 24 h
# Staphylococcus aureus [20] = assay: Antimicrobial activity against Staphylococcus aureus NCTC 4163 after 24 hr by agar cup diffusion technique; type: functional
# [21] = tested on: Human immunodeficiency virus 1; assay: Antiviral activity against Human immunodeficiency virus 1 infected CEM cells assessed as inhibition of virus-induced cytopathic effect at 2 X 10^-4 M by XTT assay; type: functional; conditions: Human immunodeficiency virus 1, CCRF-CEM
# CCRF-CEM [22] = assay: Cytotoxicity against Homo sapiens (human) CEM cells by XTT assay; type: cell-based
# Staphylococcus aureus [23] = assay: Antimicrobial activity against Staphylococcus aureus NCTC 4163 after 24 hr by two-fold serial dilution method; type: functional; conditions: NCTC 4163, 24 h
# Pseudomonas aeruginosa [24] = assay: Antimicrobial activity against Pseudomonas aeruginosa ATCC 9027 after 24 hr by two-fold serial dilution method; type: functional; conditions: ATCC 9027, 24 h
# Bacillus spizizenii [25] = assay: Antimicrobial activity against Bacillus subtilis subsp. spizizenii ATCC 6633 after 24 hr by two-fold serial dilution method; type: functional; conditions: ATCC 6633, 24 h
# Escherichia coli [26] = assay: Antimicrobial activity against Escherichia coli 5933 after 24 hr by two-fold serial dilution method; type: functional; conditions: Escherichia coli, 5933, 24 h
# Aspergillus terreus [27] = assay: Antimicrobial activity against Aspergillus terreus after 48 hr by agar cup diffusion technique; type: functional
# Aspergillus niger [28] = assay: Antimicrobial activity against Aspergillus niger ATCC 16404 after 48 hr by two-fold serial dilution method; type: functional; conditions: ATCC 16404, 48 h
# Aspergillus terreus [29] = assay: Antimicrobial activity against Aspergillus terreus after 48 hr by two-fold serial dilution method; type: functional
# Saccharomyces cerevisiae [30] = assay: Antimicrobial activity against Saccharomyces cerevisiae ATCC 9763 after 48 hr by two-fold serial dilution method; type: functional; conditions: ATCC 9763, 48 h
# Candida albicans [31] = assay: Antimicrobial activity against Candida albicans NCTC 2708 after 48 hr by two-fold serial dilution method; type: functional; conditions: NCTC 2708, 48 h
# Salmonella typhi [32] = assay: Antimicrobial activity against Salmonella enterica subsp. enterica serovar Typhi ATCC 13311 after 24 hr by two-fold serial dilution method; type: functional; conditions: ATCC 13311, 24 h
# [33] = tested on: Human immunodeficiency virus 1; assay: Antiviral activity against Human immunodeficiency virus 1 infected CEM cells assessed as inhibition of virus-induced cytopathic effect at 2 X 10^-5 M by XTT assay; type: functional; conditions: Human immunodeficiency virus 1, CCRF-CEM
structure (smiles),measurement,setting,value
Cn1c(=O)c2nc3[nH]nc(C#N)c(=N)n3c2n(C)c1=O,GI50,[1],100 µM
same,TGI,[1],100 µM
same,GI50,[2],72.2 µM
same,TGI,[2],100 µM
same,GI50,[3],86.3 µM
same,TGI,[3],100 µM
same,GI50,[4],98 µM
same,TGI,[4],100 µM
same,inhibition zone (IZ),Escherichia coli [5],14 mm
same,GI50,CCRF-CEM [6],67.8 µM
same,inhibition zone (IZ),Aspergillus niger [7],12 mm
same,GI50,CAKI-1,51.7 µM
same,GI50,[8],94.6 µM
same,TGI,[8],100 µM
same,inhibition zone (IZ),Saccharomyces cerevisiae [9],14 mm
same,inhibition zone (IZ),Proteus vulgaris [10],19 mm
same,inhibition zone (IZ),Candida albicans [11],12 mm
same,inhibition zone (IZ),Bacillus spizizenii [12],14 mm
same,GI50,[13],97.9 µM
same,TGI,[13],100 µM
same,GI50,[14],91.6 µM
same,TGI,[14],100 µM
same,growth at 100 µM,MCF7,14%
same,GI50,HOP-92,31.8 µM
same,growth at 100 µM,SF-268,47%
same,inhibition zone (IZ),Salmonella typhi [15],12 mm
same,growth at 100 µM,NCI-H460,62%
same,GI50,T47D,32.9 µM
same,GI50,SK-MEL-5,45.9 µM
same,GI50,Malme-3M,25.2 µM
same,GI50,ACHN,44.3 µM
same,GI50,UO-31,50.6 µM
same,inhibition zone (IZ),Pseudomonas aeruginosa [16],18 mm
same,GI50,A498,51.4 µM
same,GI50,NCI-H226,54 µM
same,GI50,[17],87.3 µM
same,TGI,[17],100 µM
same,GI50,[18],81.6 µM
same,TGI,[18],96.9 µM
Cn1c(=O)c2nc3[nH]nc(C#N)c(=O)n3c2n(C)c1=O,MIC,Proteus vulgaris [19],< 100 µg/mL
same,inhibition zone (IZ),Escherichia coli [5],12 mm
same,inhibition zone (IZ),Staphylococcus aureus [20],14 mm
same,inhibition at 200 µM,[21],10.9%
same,inhibition zone (IZ),Saccharomyces cerevisiae [9],14 mm
same,inhibition zone (IZ),Proteus vulgaris [10],22 mm
same,inhibition zone (IZ),Candida albicans [11],15 mm
same,IC50,CCRF-CEM [22],> 200 µM
same,inhibition zone (IZ),Pseudomonas aeruginosa [16],16 mm
Cn1c(=O)c2c(n(C)c1=O)n1c(-c3ccc(Cl)cc3)nnc1n2C,MIC,Proteus vulgaris [19],< 100 µg/mL
same,inhibition zone (IZ),Escherichia coli [5],12 mm
same,inhibition zone (IZ),Staphylococcus aureus [20],22 mm
same,inhibition zone (IZ),Saccharomyces cerevisiae [9],14 mm
same,inhibition zone (IZ),Proteus vulgaris [10],25 mm
same,inhibition zone (IZ),Candida albicans [11],12 mm
same,inhibition zone (IZ),Bacillus spizizenii [12],13 mm
same,growth at 100 µM,MCF7,82%
same,growth at 100 µM,SF-268,90%
same,MIC,Staphylococcus aureus [23],< 100 µg/mL
same,growth at 100 µM,NCI-H460,95%
same,inhibition zone (IZ),Pseudomonas aeruginosa [16],21 mm
same,MIC,Pseudomonas aeruginosa [24],< 200 µg/mL
COc1ccc(-c2nnc3n(C)c4c(=O)n(C)c(=O)n(C)c4n23)cc1,MIC,Proteus vulgaris [19],< 50 µg/mL
same,inhibition zone (IZ),Escherichia coli [5],20 mm
same,inhibition zone (IZ),Staphylococcus aureus [20],14 mm
same,inhibition zone (IZ),Saccharomyces cerevisiae [9],16 mm
same,inhibition zone (IZ),Proteus vulgaris [10],28 mm
same,inhibition zone (IZ),Candida albicans [11],18 mm
same,inhibition zone (IZ),Bacillus spizizenii [12],20 mm
same,inhibition zone (IZ),Salmonella typhi [15],17 mm
same,MIC,Bacillus spizizenii [25],< 200 µg/mL
same,MIC,Escherichia coli [26],< 200 µg/mL
same,inhibition zone (IZ),Pseudomonas aeruginosa [16],21 mm
same,MIC,Pseudomonas aeruginosa [24],< 200 µg/mL
same,inhibition zone (IZ),Aspergillus terreus [27],16 mm
Cn1c(=O)c2c(n(C)c1=O)n1c(-c3ccc(Br)cc3)nnc1n2C,MIC,Proteus vulgaris [19],< 100 µg/mL
same,inhibition zone (IZ),Escherichia coli [5],12 mm
same,inhibition zone (IZ),Staphylococcus aureus [20],14 mm
same,inhibition zone (IZ),Aspergillus niger [7],22 mm
same,inhibition zone (IZ),Saccharomyces cerevisiae [9],13 mm
same,inhibition zone (IZ),Proteus vulgaris [10],22 mm
same,inhibition zone (IZ),Candida albicans [11],14 mm
same,inhibition zone (IZ),Bacillus spizizenii [12],11 mm
same,MIC,Aspergillus niger [28],< 100 µg/mL
same,inhibition zone (IZ),Pseudomonas aeruginosa [16],20 mm
same,MIC,Pseudomonas aeruginosa [24],< 200 µg/mL
Clc1ccccc1C(c1ccccc1)(c1ccccc1)n1ccnc1 [CLOTRIMAZOLE],MIC,Aspergillus terreus [29],10 µg/mL
same,MIC,Saccharomyces cerevisiae [30],5 µg/mL
same,MIC,Candida albicans [31],5 µg/mL
same,MIC,Aspergillus niger [28],10 µg/mL
CC1(C)S[C@@H]2[C@H](NC(=O)[C@H](N)c3ccccc3)C(=O)N2[C@H]1C(=O)O [AMPICILLIN],MIC,Proteus vulgaris [19],50 µg/mL
same,MIC,Staphylococcus aureus [23],5 µg/mL
same,MIC,Bacillus spizizenii [25],5 µg/mL
same,MIC,Pseudomonas aeruginosa [24],100 µg/mL
same,MIC,Salmonella typhi [32],100 µg/mL
CC(=O)c1n[nH]c2nc3c(=O)n(C)c(=O)n(C)c3n2c1=O,MIC,Proteus vulgaris [19],< 100 µg/mL
same,inhibition zone (IZ),Escherichia coli [5],14 mm
same,inhibition zone (IZ),Saccharomyces cerevisiae [9],13 mm
same,inhibition zone (IZ),Proteus vulgaris [10],23 mm
same,inhibition zone (IZ),Candida albicans [11],13 mm
same,IC50,CCRF-CEM [22],> 200 µM
same,inhibition zone (IZ),Bacillus spizizenii [12],14 mm
same,inhibition at 20 µM,[33],1.43%
